{"source": "paper PMC10178848", "about": "“Modulating fast skeletal muscle contraction protects skeletal muscle in animal models of Duchenne muscular dystrophy” (The Journal of Clinical Investigation, 2023)", "test_system": "mdx mouse EDL muscle", "experiment": "Phosphoprotein array analysis (Cell Signaling Phospho Antibody Array)", "settings": "T vs C", "procedure": "mdx mouse EDL muscle was prepared for ex vivo analysis as described (n = 5). Muscles were incubated for 1 hour with DMSO or EDG-5506 (5 μM) and then flash frozen in liquid nitrogen. Tissue preparation and analysis were performed as recommended by the manufacturer (Cell Signaling Phospho Antibody Array, Full Moon Biosystems)."}
{"smiles": "O=c1ccc(-c2cnc(OCC(F)(F)F)nc2)nn1Cc1cncc(F)c1", "note": "[EDG-5506]", "values": [{"measurement": "Fold Change between Samples T/C: Tau (Phospho-Ser396)", "result": 0.90}, {"measurement": "Fold Change between Samples T/C: VEGFR2 (Phospho-Tyr1175)", "result": 0.84}, {"measurement": "Fold Change between Samples T/C: Zap-70 (Phospho-Tyr319)", "result": 1.04}, {"measurement": "Fold Change between Samples T/C: c-Jun (Phospho-Ser73)", "result": 0.91}, {"measurement": "Fold Change between Samples T/C: p44/42 MAP Kinase (Phospho-Tyr204)", "result": 0.88}, {"measurement": "Fold Change between Samples T/C: p53 (Phospho-Ser15)", "result": 0.20}, {"measurement": "Ratio (T/C): 4E-BP1 (Phospho-Thr45) to total 4E-BP1 (Ab-45)", "setting": "phospho/total", "result": 0.8337}, {"measurement": "Ratio (T/C): 14-3-3 theta/tau (Phospho-Ser232) to total 14-3-3 zeta/delta (Ab-232)", "setting": "phospho/total", "result": 0.9814}, {"measurement": "Ratio (T/C): ACC1 (Phospho-Ser80) to total ACC1 (Ab-80)", "setting": "phospho/total", "result": 0.9544}, {"measurement": "Ratio (T/C): AKT1 (Phospho-Ser473) to total AKT1 (Ab-308)", "setting": "phospho/total", "result": 0.8575}, {"measurement": "Ratio (T/C): AKT1S1 (Phospho-Thr246) to total AKT1S1 (Ab-246)", "setting": "phospho/total", "result": 1.16}, {"measurement": "Ratio (T/C): AMPKbeta1 (Phospho-Ser182) to total AMPKbeta1 (Ab-182)", "setting": "phospho/total", "result": 0.902}, {"measurement": "Ratio (T/C): ASK1 (Phospho-Ser966) to total ASK1 (Ab-966)", "setting": "phospho/total", "result": 0.799}, {"measurement": "Ratio (T/C): ATF2 (Phospho-Ser62/44) to total ATF2 (Ab-62/44)", "setting": "phospho/total", "result": 0.3856}, {"measurement": "Ratio (T/C): Abl1 (Phospho-Thr754/735) to total Abl1 (Ab-754/735)", "setting": "phospho/total", "result": 1.124}, {"measurement": "Ratio (T/C): Actin Pan(a/b/g) (Phospho-Tyr55/53) to total Actin Pan(a/b/g) (Ab-55/53)", "setting": "phospho/total", "result": 0.9642}, {"measurement": "Ratio (T/C): B-RAF (Phospho-Ser446) to total B-RAF (Ab-598)", "setting": "phospho/total", "result": 0.9669}, {"measurement": "Ratio (T/C): BAX (Phospho-Thr167) to total Bax", "setting": "phospho/total", "result": 0.8854}, {"measurement": "Ratio (T/C): BCL-XL (Phospho-Ser62) to total BCL-XL (Ab-47)", "setting": "phospho/total", "result": 0.5743}, {"measurement": "Ratio (T/C): BID (Phospho-Ser78) to total BID (Ab-78)", "setting": "phospho/total", "result": 0.7661}, {"measurement": "Ratio (T/C): BLNK (Phospho-Tyr96) to total BLNK (Ab-96)", "setting": "phospho/total", "result": 0.53}, {"measurement": "Ratio (T/C): BRCA1 (Phospho-Ser1423) to total BRCA1 (Ab-1524)", "setting": "phospho/total", "result": 0.7749}, {"measurement": "Ratio (T/C): CDC25C (Phospho-Ser216) to total CDC25C (Ab-216)", "setting": "phospho/total", "result": 0.4323}, {"measurement": "Ratio (T/C): CDK1/CDC2 (Phospho-Tyr15) to total CDK1/CDC2 (Ab-15)", "setting": "phospho/total", "result": 0.7557}, {"measurement": "Ratio (T/C): CREB (Phospho-Ser133) to total CREB (Ab-133)", "setting": "phospho/total", "result": 1.041}, {"measurement": "Ratio (T/C): CaMK2-beta/gamma/delta (Phospho-Thr287) to total CaMK2-beta/gamma/delta (Ab-287)", "setting": "phospho/total", "result": 0.6524}, {"measurement": "Ratio (T/C): CaMK2A (Phospho-Thr286) to total CaMK2A (Ab-286)", "setting": "phospho/total", "result": 0.848}, {"measurement": "Ratio (T/C): Caspase 1 (Phospho-Ser376) to total Caspase 1 (Ab-376)", "setting": "phospho/total", "result": 0.6605}, {"measurement": "Ratio (T/C): Caspase 8 (Phospho-Ser347) to total Caspase 8 (Ab-347)", "setting": "phospho/total", "result": 1.051}, {"measurement": "Ratio (T/C): Caspase 9 (Phospho-Ser196) to total Caspase 9 (Ab-196)", "setting": "phospho/total", "result": 0.4054}, {"measurement": "Ratio (T/C): Catalase (Phospho-Tyr385) to total Catalase (Ab-385)", "setting": "phospho/total", "result": 0.7422}, {"measurement": "Ratio (T/C): Catenin beta (Phospho-Thr41/Ser45) to total Catenin beta (Ab-37)", "setting": "phospho/total", "result": 0.6858}, {"measurement": "Ratio (T/C): Chk1 (Phospho-Ser286) to total Chk1 (Ab-286)", "setting": "phospho/total", "result": 0.7615}, {"measurement": "Ratio (T/C): Chk2 (Phospho-Thr68) to total Chk2 (Ab-68)", "setting": "phospho/total", "result": 0.4403}, {"measurement": "Ratio (T/C): CrkII (Phospho-Tyr221) to total CrkII (Ab-221)", "setting": "phospho/total", "result": 0.7162}, {"measurement": "Ratio (T/C): Cyclin D1 (Phospho-Thr286) to total Cyclin D1 (Ab-286)", "setting": "phospho/total", "result": 1.068}, {"measurement": "Ratio (T/C): Cyclin E1 (Phospho-Thr77) to total Cyclin E1 (Ab-77)", "setting": "phospho/total", "result": 0.8189}, {"measurement": "Ratio (T/C): DARPP-32 (Phospho-Thr34) to total DARPP-32 (Ab-34)", "setting": "phospho/total", "result": 0.8988}, {"measurement": "Ratio (T/C): EEF2 (Phospho-Thr56) to total EEF2 (Ab-56)", "setting": "phospho/total", "result": 1.324}, {"measurement": "Ratio (T/C): EGFR (Phospho-Tyr869) to total EGFR (Ab-1172)", "setting": "phospho/total", "result": 1.314}, {"measurement": "Ratio (T/C): EGFR (Phospho-Tyr1172) to total EGFR (Ab-1172)", "setting": "phospho/total", "result": 0.9484}, {"measurement": "Ratio (T/C): Elk1 (Phospho-Ser383) to total Elk1 (Ab-389)", "setting": "phospho/total", "result": 0.8083}, {"measurement": "Ratio (T/C): FAK (Phospho-Ser910) to total FAK (Ab-910)", "setting": "phospho/total", "result": 0.6171}, {"measurement": "Ratio (T/C): FGFR1 (Phospho-Tyr654) to total FGFR1 (Ab-766)", "setting": "phospho/total", "result": 1.2323}, {"measurement": "Ratio (T/C): FKHRL1/FOXO3A (Phospho-Ser253) to total FKHRL1/FOXO3A (Ab-253)", "setting": "phospho/total", "result": 0.5092}, {"measurement": "Ratio (T/C): FOXO1/3/4-pan (Phospho-Thr24/32) to total FOXO1/3/4-pan (Ab-24/32)", "setting": "phospho/total", "result": 0.8412}, {"measurement": "Ratio (T/C): GRK2 (Phospho-Ser29) to total GRK2 (Ab-29)", "setting": "phospho/total", "result": 0.6549}, {"measurement": "Ratio (T/C): GSK3 beta (Phospho-Ser9) to total GSK3 beta", "setting": "phospho/total", "result": 0.6837}, {"measurement": "Ratio (T/C): HDAC1 (Phospho-Ser421) to total HDAC1 (Ab-421)", "setting": "phospho/total", "result": 1.576}, {"measurement": "Ratio (T/C): HDAC2 (Phospho-Ser394) to total HDAC2 (Ab-394)", "setting": "phospho/total", "result": 0.8716}, {"measurement": "Ratio (T/C): HER2 (Phospho-Tyr1221/Tyr1222) to total HER2 (Ab-1221/1222)", "setting": "phospho/total", "result": 0.7289}, {"measurement": "Ratio (T/C): HER2 (Phospho-Tyr1248) to total HER2 (Ab-1221/1222)", "setting": "phospho/total", "result": 0.9858}, {"measurement": "Ratio (T/C): HSP27 (Phospho-Ser82) to total HSP27 (Ab-82)", "setting": "phospho/total", "result": 1.177}, {"measurement": "Ratio (T/C): HSP90B (Phospho-Ser226) to total HSP90B (Ab-254)", "setting": "phospho/total", "result": 0.9521}, {"measurement": "Ratio (T/C): IKK alpha/beta (Phospho-Ser180/181) to total IKK alpha/beta (Ab-180/181)", "setting": "phospho/total", "result": 0.9407}, {"measurement": "Ratio (T/C): IKK-beta (Phospho-Tyr188) to total IKK-beta (Ab-199)", "setting": "phospho/total", "result": 0.6267}, {"measurement": "Ratio (T/C): IKK-beta (Phospho-Tyr199) to total IKK-beta (Ab-199)", "setting": "phospho/total", "result": 0.8262}, {"measurement": "Ratio (T/C): IKK-gamma (Phospho-Ser31) to total IKK-gamma (Ab-31)", "setting": "phospho/total", "result": 1.02}, {"measurement": "Ratio (T/C): IL-4R/CD124 (Phospho-Tyr497) to total IL-4R/CD124 (Ab-497)", "setting": "phospho/total", "result": 0.9976}, {"measurement": "Ratio (T/C): IL-10R-alpha (Phospho-Tyr496) to total IL-10R-alpha (Ab-496)", "setting": "phospho/total", "result": 0.6514}, {"measurement": "Ratio (T/C): IRS-1 (Phospho-Ser312) to total IRS-1 (Ab-312)", "setting": "phospho/total", "result": 0.9305}, {"measurement": "Ratio (T/C): IkB-alpha (Phospho-Ser32/36) to total IkB-alpha (Ab-32/36)", "setting": "phospho/total", "result": 1.258}, {"measurement": "Ratio (T/C): IkB-epsilon (Phospho-Ser22) to total IkB-epsilon (Ab-22)", "setting": "phospho/total", "result": 0.98}]}
